Measured values reported in paper PMC5603587, “Pharmacological inhibition of CaMKK2 with the selective antagonist STO-609 regresses NAFLD” (Scientific Reports, 2017).
Where two headings read alike, the source gives them in different places.

What was measured:
[1] = plasma pharmacokinetics after a single i.p. dose; assay type: in vivo; conditions: male, C57BL/6 J, ip, mouse; for AUC(0-t): read-out: AUC 0-24, plasma
Experimental: (§1) Plasma samples were prepared by mixing 5.0 μl of plasma with 45 μl of ice-cold MeOH followed by centrifugation at 15,000 × g for 15 min to remove protein. The resulting supernates were transferred into autosampler vials for analysis. Tissues (liver, intestine, kidney, pancreas, spleen, lung, heart, testis, white adipose tissue, gastrocnemius and brain) were weighed and homogenized in H2O/MeOH (1:1 v/v, 100 mg tissue in 600 μl). A volume of 200 μl of MeOH was added to 100 μl of tissue extracts. After vortexing and centrifugation (15 min at 15,000 × g), each supernate was transferred to an autosampler vial and 5.0 μl was injected to a system combining ultra-high performance liquid chromatography (UHPLC) and quadrupole time of flight mass spectrometry (QTOFMS) for analysis. The concentration of STO-609 was calculated based on standard curves in the corresponding matrices. The pharmacokinetic parameters were calculated using non-compartmental analysis with PKSolver[20]. The linear trapezoidal rule was used for area under the curve (AUC) calculation.
(§2) Separation of STO-609 and its metabolites was achieved using a LC-QTOFMS system (Agilent Technologies, Santa Clara, CA) equipped with a 100 mm × 2.1 mm (Agilent XDB C18) column as previously described. Briefly, the column temperature was maintained at 45 °C. The flow rate was maintained at 0.3 ml/min with a gradient ranging from 2% to 98% aqueous acetonitrile containing 0.1% formic acid over a 15 min run. QTOFMS was operated in positive mode with electrospray ionization. Ultra high pure nitrogen was applied as the drying (12 L/min) and collision gas. The drying gas temperature was set at 325°C and nebulizer pressure was maintained at 35 psi. Capillary voltages were set at 3.5 kV. During mass spectrometry, real time mass correction and accurate mass were achieved by continuously measuring standard reference ions at m/z 121.0508, 922.0098 in the positive mode. The MS/MS of STO-609 and its metabolites was performed in targeted mode with a default isolation width of 4 m/z and collision energy ramp ranging from 20 to 50 V. Mass chromatograms and mass spectra were acquired by MassHunter® Workstation data Acquisition software (Agilent, Santa Clara, CA) in centroid and profile formats from m/z 100 to 1000. The acquisition rate was set as 1.5 spectra per second. Statistical analysis was conducted using Student’s independent t-test. Data are presented as mean ± s.e.m.

[2] = tissue distribution after a single i.p. dose; assay type: in vivo; conditions: ip, 30 μM/kg i.p., mouse; for Cmax: 30 μM/kg
Experimental: as §1, §2

Q: For `O=C(O)c1ccc2c3c1cccc3c(=O)n1c3ccccc3nc21` [STO-609^S], which AUC(0-inf) ([1]; 30 μM/kg i.p.) is on record?
A: The AUC(0-inf) was 317 µM·h.

Q: And the CL/F ([1]; 30 μM/kg i.p.)?
A: The CL/F was 1.5 mL/min/kg.

Q: What about the Cmax ([1]; 30 μM/kg i.p.) of the same compound?
A: Its Cmax is 32600 nM.

Q: What about the AUC(0-t) ([1]; 30 μM/kg i.p.) of the same compound?
A: The AUC(0-t) was 245 µM·h.

Q: And the half-life ([1]; 30 μM/kg i.p., read-out: t½, plasma (converted))?
A: The half-life was 12.2 h.

Q: What about the AUC(0-inf) ([1]; 300 μM/kg i.p.) of the same compound?
A: The AUC(0-inf) was 3250 µM·h.

Q: What about the CL/F ([1]; 300 μM/kg i.p.) of the same compound?
A: Its CL/F is 1.5 mL/min/kg.

Q: And the Cmax ([1]; 300 μM/kg i.p.)?
A: Its Cmax is 473000 nM.

Q: What about the AUC(0-t) ([1]; 300 μM/kg i.p.) of the same compound?
A: Its AUC(0-t) is 2930 µM·h.

Q: And the half-life ([1]; 300 μM/kg i.p., read-out: t½, plasma (converted))?
A: The half-life was 7.93 h.

Q: What about the half-life ([1]; 30 and 300 μM/kg i.p., read-out: t½, plasma, over the doses) of the same compound?
A: Its half-life is 8 to 12 h.

Q: And the half-life ([2]; C57BL/6J, intestine, read-out: t½, intestine (converted))?
A: Its half-life is 3.85 h.

Q: What about the half-life ([2]; C57BL/6J, kidney, read-out: t½, kidney (converted)) of the same compound?
A: Its half-life is 8.5 h.

Q: What about the Cmax ([2]; C57BL/6J, intestine, read-out: Cmax, intestine) of the same compound?
A: Its Cmax is 517 nM.

Q: What about the Cmax ([2]; C57BL/6J, intestine, read-out: Cmax, intestine (text)) of the same compound?
A: Its Cmax is roughly 500 nM.

Q: And the Cmax ([2]; C57BL/6J, pancreas, read-out: Cmax, pancreas)?
A: Its Cmax is 329 nM.

Q: What about the half-life ([2]; C57BL/6J, pancreas, read-out: t½, pancreas (converted)) of the same compound?
A: Its half-life is 3.18 h.

Q: And the half-life ([2]; C57BL/6J, spleen, read-out: t½, spleen (converted))?
A: Its half-life is 4 h.

Q: What about the half-life ([2]; male, C57BL/6 J, brain, read-out: t½, brain (converted)) of the same compound?
A: The half-life was 5.21 h.

Q: And the half-life ([2]; male, C57BL/6 J, gastrocnemius, read-out: t½, gastrocnemius (converted))?
A: The half-life was 5.83 h.

Q: What about the half-life ([2]; male, C57BL/6 J, heart, read-out: t½, heart (converted)) of the same compound?
A: The half-life was 3.01 h.

Q: What about the half-life ([2]; male, C57BL/6 J, liver, read-out: t½, liver (converted)) of the same compound?
A: Its half-life is 3.74 h.

Q: What about the half-life ([2]; male, C57BL/6 J, lung, read-out: t½, lung (converted)) of the same compound?
A: Its half-life is 3.24 h.

Q: What about the Cmax ([2]; male, C57BL/6 J, gastrocnemius, read-out: Cmax, gastrocnemius) of the same compound?
A: Its Cmax is 84 nM.

Q: What about the Cmax ([2]; male, C57BL/6 J, heart, read-out: Cmax, heart) of the same compound?
A: Its Cmax is 293 nM.

Q: And the Cmax ([2]; male, C57BL/6 J, spleen, read-out: Cmax, spleen)?
A: Its Cmax is 341 nM.

Q: And the Cmax ([2]; male, C57BL/6 J, testis, read-out: Cmax, testis)?
A: Its Cmax is 209 nM.

Q: What about the Cmax ([2]; male, C57BL/6 J, white adipose tissue, read-out: Cmax, white adipose tissue) of the same compound?
A: Its Cmax is 137 nM.

Q: And the half-life ([2]; male, C57BL/6 J, testis, read-out: t½, testis (converted))?
A: The half-life was 3.95 h.

Q: What about the half-life ([2]; male, C57BL/6 J, white adipose tissue, read-out: t½, white adipose tissue (converted)) of the same compound?
A: The half-life was 3.93 h.
